According to patent publication US7473790B2 (Pfizer Inc., priority 2003, dated 2009):

Target: T1, HCV polymerase (Hepatitis C virus genotype 1b, UniProt P26663)
T1 construct: 2.5 pmoles (0.15 μg) HCV polymerase protein in a final volume of 75 μL
Experiment: HCV polymerase primer/template-directed transcription assay (32P-GTP incorporation, filter binding)
Format: biochemical
Settings: recombinant HCV polymerase; 30 minutes at 30° C.; concentration giving 50% inhibition of polymerase-directed transcription; read-out: IC50
In short: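 IC50s come from triplicate cpm, refit with an enzyme-concentration (30 nM) correction when under 200 nM. Reactions ran 30 min at 30° C in Tris pH 7.2 with MgCl2, 1 μM GTP spiked with α-32P-GTP, biotin-dG12 primer and poly(rC)300 template, with 1% DMSO. Incorporated label was collected on DE filtermats and counted.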

T1 sequence (P26663 2420-3010): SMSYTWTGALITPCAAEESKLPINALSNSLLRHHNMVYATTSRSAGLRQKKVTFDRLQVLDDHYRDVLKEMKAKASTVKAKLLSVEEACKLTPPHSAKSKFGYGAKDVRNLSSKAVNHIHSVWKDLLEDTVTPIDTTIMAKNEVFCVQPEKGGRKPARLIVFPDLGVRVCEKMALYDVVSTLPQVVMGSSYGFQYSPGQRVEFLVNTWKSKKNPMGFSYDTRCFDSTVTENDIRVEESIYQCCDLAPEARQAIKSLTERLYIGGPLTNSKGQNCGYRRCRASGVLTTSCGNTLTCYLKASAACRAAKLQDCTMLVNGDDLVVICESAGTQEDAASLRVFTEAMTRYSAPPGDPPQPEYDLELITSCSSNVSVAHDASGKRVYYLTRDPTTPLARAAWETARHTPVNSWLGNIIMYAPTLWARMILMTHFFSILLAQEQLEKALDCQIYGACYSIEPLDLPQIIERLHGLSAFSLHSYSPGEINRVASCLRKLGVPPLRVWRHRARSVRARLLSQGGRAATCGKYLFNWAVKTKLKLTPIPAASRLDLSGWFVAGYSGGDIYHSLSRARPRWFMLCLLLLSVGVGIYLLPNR

Point of comparison: `COc1ccc(CCC2(C3CCCC3)CC(O)=C(Sc3nc4cc(C)ccc4[nH]3)C(=O)O2)cc1Cl` (centres unmarked) [C(53), 6-[2-(3-chloro-4-methoxyphenyl)ethyl]-6-cyclopentyl-4-hydroxy-3-[(5-methyl-1H-benzimidazol-2-yl)thio]-5,6-dihydro-2H-pyran-2-one], IC50 67 nM. Against it:
- COc1ccc(CCC2(C3CCCC3)CC(O)=C(Sc3nnc(-c4ccncc4)o3)C(=O)O2)cc1Cl (centres unmarked) [C(51), 6-[2-(3-chloro-4-methoxyphenyl)ethyl]-6-cyclopentyl-4-hydroxy-3-[(5-pyridin-4-yl-1,3,4-oxadiazol-2-yl)thio]-5,6-dihydro-2H-pyran-2-one] — 3.8-fold higher, 256 nM
- COc1ccc(CCC2(C3CCCC3)CC(O)=C(Sc3nc4cc(F)ccc4[nH]3)C(=O)O2)cc1Cl (centres unmarked) [C(52), 6-[2-(3-chloro-4-methoxyphenyl)ethyl]-6-cyclopentyl-3-[(5-fluoro-1H-benzimidazol-2-yl)thio]-4-hydroxy-5,6-dihydro-2H-pyran-2-one] — 2.1-fold higher, 140 nM
- COc1ccc(CCC2(C3CCCC3)CC(O)=C(Sc3nc4c(C)cccc4[nH]3)C(=O)O2)cc1Cl (centres unmarked) [C(54), 6-[2-(3-chloro-4-methoxyphenyl)ethyl]-6-cyclopentyl-4-hydroxy-3-[(4-methyl-1H-benzimidazol-2-yl)thio]-5,6-dihydro-2H-pyran-2-one] — 3.3-fold higher, 220 nM
- COc1ccc(CCC2(C3CCCC3)CC(O)=C(Sc3nc4cc(C#N)ccc4[nH]3)C(=O)O2)cc1Cl (centres unmarked) [C(55), 2-({6-[2-(3-chloro-4-methoxyphenyl)ethyl]-6-cyclopentyl-4-hydroxy-2-oxo-5,6-dihydro-2H-pyran-3-yl}thio)-1H-benzimidazole-5-carbonitrile] — 2.2-fold lower, 30 nM
- COc1ccc(CCC2(C3CCCC3)CC(O)=C(Sc3ncccc3C#N)C(=O)O2)cc1Cl (centres unmarked) [C(56), 2-({6-[2-(3-chloro-4-methoxyphenyl)ethyl]-6-cyclopentyl-4-hydroxy-2-oxo-5,6-dihydro-2H-pyran-3-yl}thio)nicotinonitrile] — 19-fold higher, 1300 nM
- COc1ccc(CCC2(C3CCCC3)CC(O)=C(Sc3nc4cc(Cl)ccc4n3C)C(=O)O2)cc1Cl (centres unmarked) [C(57), 6-[2-(3-chloro-4-methoxyphenyl)ethyl]-3-[(5-chloro-1-methyl-1H-benzimidazol-2-yl)thio]-6-cyclopentyl-4-hydroxy-5,6-dihydro-2H-pyran-2-one] — 34-fold lower, 2 nM
- COc1ccc(CCC2(C3CCCC3)CC(O)=C(Sc3nc4c(O)cccc4[nH]3)C(=O)O2)cc1Cl (centres unmarked) [C(58), 6-[2-(3-chloro-4-methoxyphenyl)ethyl]-6-cyclopentyl-4-hydroxy-3-[(4-hydroxy-1H-benzimidazol-2-yl)thio]-5,6-dihydro-2H-pyran-2-one] — 2.1-fold higher, 140 nM
- CCOc1ccc2[nH]c(SC3=C(O)CC(CCc4ccc(OC)c(Cl)c4)(C4CCCC4)OC3=O)nc2c1 (centres unmarked) [C(59), 6-[2-(3-chloro-4-methoxyphenyl)ethyl]-6-cyclopentyl-3-[(5-ethoxy-1H-benzimidazol-2-yl)thio]-4-hydroxy-5,6-dihydro-2H-pyran-2-one] — 3-fold higher, 200 nM
- COc1ccc(CCC2(C3CCCC3)CC(O)=C(Sc3nc4cc(Cl)c(Cl)cc4n3C)C(=O)O2)cc1Cl (centres unmarked) [C(60), 6-[2-(3-chloro-4-methoxyphenyl)ethyl]-6-cyclopentyl-3-[(5,6-dichloro-1-methyl-1H-benzimidazol-2-yl)thio]-4-hydroxy-5,6-dihydro-2H-pyran-2-one] — 4.5-fold lower, 15 nM
- COc1ccc(CCC2(C3CCCC3)CC(O)=C(Sc3nc4cc(Cl)c(F)cc4[nH]3)C(=O)O2)cc1Cl (centres unmarked) [C(61), 3-[(5-chloro-6-fluoro-1H-benzimidazol-2-yl)thio]-6-[2-(3-chloro-4-methoxyphenyl)ethyl]-6-cyclopentyl-4-hydroxy-5,6-dihydro-2H-pyran-2-one] — 2.1-fold higher, 140 nM
- COc1ccc(CCC2(C3CCCC3)CC(O)=C(Sc3nc4cc(C(F)(F)F)cc(Cl)c4[nH]3)C(=O)O2)cc1Cl (centres unmarked) [C(62), 6-[2-(3-chloro-4-methoxyphenyl)ethyl]-3-{[7-chloro-5-(trifluoromethyl)-1H-benzimidazol-2-yl]thio}-6-cyclopentyl-4-hydroxy-5,6-dihydro-2H-pyran-2-one] — 7.5-fold higher, 500 nM
- COc1cc(OC)c(CCC2(C3CCCC3)CC(O)=C(Sc3nc4cc(Cl)ccc4n3C)C(=O)O2)cc1Cl (centres unmarked) [C(63), 6-[2-(5-chloro-2,4-dimethoxyphenyl)ethyl]-3-[(5-chloro-1-methyl-1H-benzimidazol-2-yl)thio]-6-cyclopentyl-4-hydroxy-5,6-dihydro-2H-pyran-2-one] — 8.4-fold lower, 8 nM
- COc1ccc(CCC2(C3CCCC3)CC(O)=C(Sc3nc4cncnc4[nH]3)C(=O)O2)cc1Cl (centres unmarked) [C(65), 6-[2-(3-chloro-4-methoxyphenyl)ethyl]-6-cyclopentyl-4-hydroxy-3-(9H-purin-8-ylthio)-5,6-dihydro-2H-pyran-2-one] — within 1.5-fold, 54 nM
- COc1ccc(CCC2(C3CCCC3)CC(O)=C(Sc3ccc4ccccc4n3)C(=O)O2)cc1Cl (centres unmarked) [C(66), 6-[2-(3-chloro-4-methoxyphenyl)ethyl]-6-cyclopentyl-4-hydroxy-3-(quinolin-2-ylthio)-5,6-dihydro-2H-pyran-2-one] — 13-fold higher, 900 nM
- COc1ccc(CCC2(C3CCCC3)CC(O)=C(Sc3ncc4[nH]cnc4n3)C(=O)O2)cc1Cl (centres unmarked) [C(67), 6-[2-(3-chloro-4-methoxyphenyl)ethyl]-6-cyclopentyl-4-hydroxy-3-(7H-purin-2-ylthio)-5,6-dihydro-2H-pyran-2-one] — within 1.5-fold, 50 nM
- COc1ccc(CCC2(C3CCCC3)CC(O)=C(Sc3ncnc4ccccc34)C(=O)O2)cc1Cl (centres unmarked) [C(68), 6-[2-(3-chloro-4-methoxyphenyl)ethyl]-6-cyclopentyl-4-hydroxy-3-(quinazolin-4-ylthio)-5,6-dihydro-2H-pyran-2-one] — 3-fold higher, 200 nM
- Cc1cc(C)n2nc(SC3=C(O)CC(CCc4ccc(C(F)F)c(F)c4)(C4CCCC4)OC3=O)nc2n1 (centres unmarked) [C(69), 6-Cyclopentyl-6-{2-[4-(difluoromethyl)-3-fluorophenyl]ethyl}-3-[(5,7-dimethyl[1,2,4]triazolo[1,5-a]pyrimidin-2-yl)thio]-4-hydroxy-5,6-dihydro-2H-pyran-2-one] — 1.9-fold higher, 130 nM
- COc1cc(OC)c(CCC2(C3CCCC3)CC(O)=C(Sc3nc4nc[nH]c(=O)c4[nH]3)C(=O)O2)cc1Cl (centres unmarked) [C(70), 8-({6-[2-(5-chloro-2,4-dimethoxyphenyl)ethyl]-6-cyclopentyl-4-hydroxy-2-oxo-5,6-dihydro-2H-pyran-3-yl}thio)-1,7-dihydro-6H-purin-6-one] — 9.1-fold lower, 7.4 nM
- COc1cc(OC)c(CCC2(C3CCCC3)CC(O)=C(Sc3n[nH]c(-c4ccccc4)n3)C(=O)O2)cc1Cl (centres unmarked) [C(71), 6-[2-(5-Chloro-2,4-dimethoxyphenyl)ethyl]-6-cyclopentyl-4-hydroxy-3-[(5-phenyl-1H-1,2,4-triazol-3-yl)thio]-5,6-dihydro-2H-pyran-2-one] — within 1.5-fold, 58 nM
- COc1cc(OC)c(CCC2(C3CCCC3)CC(O)=C(Sc3nnnn3C)C(=O)O2)cc1Cl (centres unmarked) [C(72), 6-[2-(5-Chloro-2,4-dimethoxyphenyl)ethyl]-6-cyclopentyl-4-hydroxy-3-[(1-methyl-1H-tetrazol-5-yl)thio]-5,6-dihydro-2H-pyran-2-one] — within 1.5-fold, 78 nM
- COc1cc(OC)c(CCC2(C3CCCC3)CC(O)=C(Sc3nc4cc(Cl)ccc4n3C(C)C)C(=O)O2)cc1Cl (centres unmarked) [C(73), 6-[2-(5-Chloro-2,4-dimethoxyphenyl)ethyl]-3-[(5-chloro-1-isopropyl-1H-benzimidazol-2-yl)thio]-6-cyclopentyl-4-hydroxy-5,6-dihydro-2H-pyran-2-one] — 1.9-fold lower, 35 nM
- COc1cc(OC)c(CCC2(C3CCCC3)CC(O)=C(Sc3nc(O)cc(C(F)(F)F)n3)C(=O)O2)cc1Cl (centres unmarked) [C(74), 6-[2-(5-chloro-2,4-dimethoxyphenyl)ethyl]-6-cyclopentyl-4-hydroxy-3-{[4-hydroxy-6-(trifluoromethyl)pyrimidin-2-yl]thio}-5,6-dihydro-2H-pyran-2-one] — within 1.5-fold, 99 nM
- COc1cc(OC)c(CCC2(C3CCCC3)CC(O)=C(Sc3nnc(-c4cccnc4)[nH]3)C(=O)O2)cc1Cl (centres unmarked) [C(75), 6-[2-(5-chloro-2,4-dimethoxyphenyl)ethyl]-6-cyclopentyl-4-hydroxy-3-[(5-pyridin-3-yl-4H-1,2,4-triazol-3-yl)thio]-5,6-dihydro-2H-pyran-2-one] — 1.5-fold lower, 44 nM
- COc1cc(OC)c(CCC2(C3CCCC3)CC(O)=C(Sc3nc4cc(N)ccc4n3C)C(=O)O2)cc1Cl (centres unmarked) [C(76), 3-[(5-amino-1-methyl-1H-benzimidazol-2-yl)thio]-6-[2-(5-chloro-2,4-dimethoxyphenyl)ethyl]-6-cyclopentyl-4-hydroxy-5,6-dihydro-2H-pyran-2-one] — within 1.5-fold, 53 nM
- COc1cc(OC)c(CCC2(C3CCCC3)CC(O)=C(Sc3ncc(-c4cccnc4)[nH]3)C(=O)O2)cc1Cl (centres unmarked) [C(77), 6-[2-(5-chloro-2,4-dimethoxyphenyl)ethyl]-6-6cyclopentyl-4-hydroxy-3-[(5-pyridin-3-yl-1H-imidazol-2-yl)thio]-5,6-2H-pyran-2-one] — within 1.5-fold, 62 nM
- COc1cc(OC)c(CCC2(C3CCCC3)CC(O)=C(Sc3nccnc3C)C(=O)O2)cc1Cl (centres unmarked) [C(78), 6-[2-(5-chloro-2,4-dimethoxyphenyl)ethyl]-6-cyclopentyl-4-hydroxy-3[(3-methylpyrazin-2-yl)thio]-5,6-dihydro-2H-pyran-2-one] — within 1.5-fold, 47 nM
- COc1cccc(-c2nnc(SC3=C(O)CC(CCc4cc(Cl)c(OC)cc4OC)(C4CCCC4)OC3=O)n2C)c1 (centres unmarked) [C(79), 6-[2-(5-chloro-2,4-dimethoxyphenyl)ethyl]-6-cyclopentyl-4-hydroxy-3-{[5-(3-methoxyphenyl)-4-methyl-4H-1,2,4-triazol-3-yl]thio}-5,6-dihydro-2H-pyran-2-one] — within 1.5-fold, 63 nM
- COc1cc(OC)c(CCC2(C3CCCC3)CC(O)=C(Sc3nnc(O)n3C(C)C)C(=O)O2)cc1Cl (centres unmarked) [C(80), 6-[2-(5-chloro-2,4-dimethoxyphenyl)ethyl]-6-cyclopentyl-4-hydroxy-3-[(5-hydroxy-4-isopropyl-4H-1,2,4-triazol-3-yl)thio]-5,6-dihydro-2H-pyran-2-one] — 2.2-fold lower, 31 nM
